Laboratory results published in PMC7334220, “Diamond Blackfan anemia is mediated by hyperactive Nemo-like kinase” (Nature Communications, 2020).

How the values were obtained:
[1] = system: RPL11-insufficient cord blood CD34+ HSPCs; assay: In vitro differentiation of cord blood CD34+ HSPCs transduced with shRNA against RPL11; assay type: cell-based; conditions: Homo sapiens, 360 h; read-out: erythroid expansion in RPL11-insufficiency, % of control
From the text: Fig. 8 NLK inhibition increases expansion of erythroid progenitors from human and murine models of DBA. a Human cord blood CD34^+ progenitors were transduced with lentivirus co-expressing GFP with shRNA against luciferase (shLuc), RPS19 (shRPS19), or RPL11 (shRPL11). […] Cells were counted and assessed for cell surface expression of CD235. b Lin-Kit^+ hematopoietic progenitors were obtained from three mouse embryos expressing tetracycline-inducible shRNA against RPS19 at day E14.5 or three untreated mice, and thee mature RPL11^+/+ or three mature RPL11^+/lox mice treated with tamoxifen for eight weeks. […] Values were expressed as a percentage relative to untreated controls. c, d Intracellular phosphorylation of NLK at Thr298 was determined by capillary electrophoresis using the Peggy Sue™ Automated Western blotting platform. After lysis, 4 µg of protein from the CD235^+ population was probed against pThr298-NLK and normalized to GAPDH. […] After counting the total cell population, the ratio of CD235^+ erythroblasts was determined by flow cytometry and number of CD235^+ erythroblasts calculated. This was expressed as a percentage of the average number of erythroid cells present in untreated healthy controls. f NLK phosphorylation was assessed by capillary electrophoresis as above. Bars represent means ± SD with individual data points overlaid. […]

NLK = target: T1, NLK (Homo sapiens, UniProt Q9UBE8); assay: DiscoveRX kinase profile analysis of SD208, NLK; assay type: biochemical; conditions: kinase profiling, Supplementary Fig. 2a
T1 construct: NLK, p38, or ALK5 for in vitro kinase assays were immunopurified from Kp53A1 cells; endogenous in cells; immunoprecipitated with anti-NLK (Abcam AB97642)
T1 sequence (Q9UBE8 1-527): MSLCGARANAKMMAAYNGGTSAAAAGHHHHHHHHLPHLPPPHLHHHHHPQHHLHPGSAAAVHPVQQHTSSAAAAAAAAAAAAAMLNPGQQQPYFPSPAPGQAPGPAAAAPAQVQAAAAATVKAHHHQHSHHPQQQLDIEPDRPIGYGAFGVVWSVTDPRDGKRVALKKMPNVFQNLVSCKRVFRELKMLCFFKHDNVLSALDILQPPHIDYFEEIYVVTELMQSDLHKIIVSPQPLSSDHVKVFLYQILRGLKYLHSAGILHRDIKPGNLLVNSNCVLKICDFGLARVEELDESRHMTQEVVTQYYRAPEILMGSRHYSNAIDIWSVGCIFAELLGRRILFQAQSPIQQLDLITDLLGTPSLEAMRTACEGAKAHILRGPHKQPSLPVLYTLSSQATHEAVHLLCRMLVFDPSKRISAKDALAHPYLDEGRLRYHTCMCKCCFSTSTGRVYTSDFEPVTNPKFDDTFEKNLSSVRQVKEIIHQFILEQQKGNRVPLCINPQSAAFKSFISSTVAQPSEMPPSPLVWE
Protocol: Supplementary Fig. 2. SD208 and NLK siRNA are specific. (a) The top 22 hits from DiscoveRX kinase profile analysis of SD208. (b) Human cord blood CD34+ progenitors were transduced shRNA against luciferase (shLuc) or RPS19 (shRPS19) and differentiated in erythroid media in the presence […]
days. Cells were counted and assessed for cell surface expression of CD235. Effective inhibition of p38 activity was assessed by lysis of treated controls and Western blot analysis of pp38. (c) Cord blood CD34+ progenitors were transduced with shRNA against RPS19 and either non-targeting (NT) or 1 of 3 different shRNA sequences against NLK. After sorting, cells were differentiated for 12 days. Lysates were subjected to qRT-PCR to assess NLK expression (Upper) and the number of CD235+ erythroblasts was determined by flow cytometry and is expressed relative to erythroid expansion of control cells (Lower). (d) Kp53A1 cells were untransfected (Unt), transfected with a non-targeting sequence (NT), or siRNA against NLK (siNLK). Phosphorylation status of p38, JNK and ERK was determined by treating transfected Kp53A1 cells EPO prior to Western blot analysis for pp38, pJNK and pERK. Transfected cells were cultured for 48 hours prior to lysis. Lysates were subjected to SDS-PAGE and protein expression of the listed proteins was determined by Western blot analysis. […]

`Fc1ccc(Cl)cc1-c1nc(Nc2ccncc2)c2nccnc2n1` [SD208] showed an activity at 5 µM [1] of 36.7% and an inhibition at 10 µM (NLK) of 96.8%.
